According to patent US7521236B2, “Sulfur-oxidizing plant growth promoting rhizobacteria for enhanced canola performance” (priority 2002, dated 2009):

Legend:
Assay type in all cases: in vivo
canola plants [1] = assay: Growth room experiment in sulfur deficient Melfort, SK soil: biomass and yield; conditions: 105 DAP
Protocol: (§1) Effects of bacterial inoculation on plant growth parameters were studied in a growth room with the four screened S-oxidizing strains (RAY12, RAY28, RAY132 and RAY209). More emphasis was given on plant growth characteristics including canola seed yield. Growth room assay was conducted with a sulfur deficient field soil, collected near Melfort, Saskatchewan, and was a loam (pH 7.8, electrical conductivity (mS/cm) 0.2 with following nutrient levels in ppm. nitrate nitrogen 7.3, phosphorous 14.6, potassium 187.1 and sulfur 9.5. Rhizobacterial strains RAY12, RAY28, RAY132 and RAY209 were used for the canola seed inoculation. The experiment was consisting of eight bacterial treatments along with three controls (control—no sulfur; elemental S control; and sulfate S control) each having three replications. One and half kg sieved soil (<5 mm mesh) was added to 16-cm plastic pots and the pots were kept in a growth room (22° C., 16 h light; 18° C., 8 h dark). Five seeds were planted in each of the pots and seedlings were thinned to one per pot after emergence. Daily watering to constant weight ensured similar matric potential between the pots. Canola plants were harvested at maturity (105 DAP) and stalk dry weight, pod number, pod weight and seed weight or yield determined. In another growth room experiment done in similar manner as previous one, canola seed yield, and, seed macronutrients (S, N, P, K, Ca and Mg) and micronutrients (Zn, B, Cu and Fe) uptake were determined.

canola plants [2] = assay: Second growth room experiment: seed yield and seed nutrient uptake; conditions: per plant; for B uptake / Ca uptake / Cu uptake / K uptake / Mg uptake / N uptake / P uptake / S uptake / Zn uptake: seed
Protocol: as §1

canola = assay: Field trial 2002, Dauphin, MB; conditions: canola seed, Dauphin field site
Protocol: In 2002, field trials were carried out using three canola PGPR strains. The canola trials were planted through commercial seed planter using bacteria inoculated powdered peat-based carrier material coated seeds. The cultivar used was the same as 2001. All field trials were randomized complete block design having each plot size of 6 m×1.5 m, with nine bacterial treatments along with three controls, all with six replicates. […] Plots were harvested at maturity, seed was collected and cleaned, and yield was measured based on 8.5% seed moisture. In addition, canola seed macronutrients (S, N, P, K, Ca and Mg) and micronutrients (Zn, Mn, Cu and Fe) uptake were also determined.

canola plants [3] = assay: Second growth room experiment: seed yield and seed nutrient uptake; conditions: seed, per plant

Row | Compound | pod no. (canola plants [1]) | pod wt. (canola plants [1]) | seed wt. (canola plants [1]) | stalk dry wt. (canola plants [1]) | seed yield (canola plants [2]) | B uptake (canola plants [2]) | Ca uptake (canola plants [2]) | Cu uptake (canola plants [2]) | K uptake (canola plants [2]) | Mg uptake (canola plants [2]) | N uptake (canola plants [2]) | P uptake (canola plants [2]) | S uptake (canola plants [2]) | Zn uptake (canola plants [2]) | Ca uptake (canola) | Cu uptake (canola) | Fe uptake (canola) | K uptake (canola) | Mg uptake (canola) | Mn uptake (canola) | other results
1 | [S] [ES, elemental sulfur] | 58 NO./PLANT | 3.17 G/PLANT | 1.13 G/PLANT | 3.84 G/PLANT | 2.92 g | 0.09 µg | 12.10 mg | 0.03 µg | 28.42 mg | 11.37 mg | 116.30 mg | 28.71 mg | 18.66 mg | 2.08 µg | 4.50 kg/ha | 2.17 g/ha | 57.17 g/ha | 7.60 kg/ha | 3.51 kg/ha | 28.97 g/ha | N uptake (canola): 32.91 kg/ha; P uptake (canola): 7.54 kg/ha; S uptake (canola): 4.13 kg/ha; Zn uptake (canola): 40.05 g/ha; Mn uptake (canola plants [3]): 1.14 µg
2 | sulfate sulfur [SO4] | 78 NO./PLANT | 4.20 G/PLANT | 1.71 G/PLANT | 4.56 G/PLANT | 3.11 g | 0.13 µg | 11.71 mg | 0.03 µg | 27.52 mg | 12.12 mg | 116.30 mg | 28.24 mg | 15.76 mg | 1.72 µg | 5.02 kg/ha | 2.61 g/ha | 68.20 g/ha | 9.09 kg/ha | 4.14 kg/ha | 37.22 g/ha | N uptake (canola): 39.74 kg/ha; P uptake (canola): 8.71 kg/ha; S uptake (canola): 5.10 kg/ha; Zn uptake (canola): 51.32 g/ha; Mn uptake (canola plants [3]): 1.22 µg
